In US20240207302A1, “ANTIVIRAL COMPOUNDS, METHODS FOR THE MANUFACTURING OF COMPOUNDS, ANTIVIRAL PHARMACEUTICAL COMPOSITION, USE OF THE COMPOUNDS AND METHOD FOR THE ORAL TREATMENT OF CORONAVIRUS INFECTION AND RELATED DISEASES THEREOF” (priority 2021, published 2024):
Where two headings read alike, the source gives them in different places.

Assays:
[1] = system: SARS-COV-2; assay: SARS-COV-2 viral RNA synthesis in Calu-3 cells (real time RT-PCR); assay type: cell-based; settings: 1.0 μM
[2] = system: TNF-α and IL-6; assay: TNF-α and IL-6 levels in supernatant of SARS-COV-2-infected human primary monocytes; assay type: cell-based; settings: 24 h
Experimental: (§1) FIG. 5A, 5B and 5C. The compounds impair SARS-COV-2 RNA synthesis and SARS-COV-2-induced release of inflammatory mediators in human primary monocytes.
(§2) Human primary monocytes were obtained after 3 h of plastic adherence of peripheral blood mononuclear cells (PBMCs). PBMCs were isolated from healthy donors by density gradient centrifugation (Ficoll-Paque, GE Healthcare). PBMCs (2.0×10^6 cells) were plated onto 48-well plates (NalgeNunc) in RPMI-1640 without serum for 2 to 4 h. Non-adherent cells were removed, and the remaining monocytes were maintained in DMEM with 5% human serum (HS; Millipore) and penicillin/streptomycin. Monocytes were infected at MOI of 0.1. After 1 h inoculation period, cells were washed with phosphate saline buffer (PBS) to remove unbounded viruses and treated with 1 μM of the indicated compounds. After 24 h after infection, cell monolayers werc lysed total viral RNA was extracted, quantitative RT-PCR was performed, to detect the SARS-COV-2 and the housekeeping gene RNAse P.

[3] = system: SARS-COV-2
[4] = Cytotoxicity assay (XTT) in Calu-3 cells; assay type: cell-based, human; settings: human, Calu-3 cells, Table 6
Experimental: In parallel, cytotoxicity assays were performed.

[5] = molecular target: human ERG potassium channel (ether-a-gogo-related gene, Kv11.1) (Homo sapiens, UniProt Q12809); assay: hERG FLIPR Potassium assay in HEK293 cells; settings: up to 300 μM
[6] = Maximum tolerated dose (OECD 425) and tolerability; assay type: in vivo; settings: mice
Experimental: The present assay was designed to investigate the safety and tolerability of MB-905. For the MTD assay (OECD 425), mice (3 animals of each sex/group) were divided into five experimental groups and the up and down procedure was applied to which 175 mg/kg was used as the first dose. […] Mortality, morbidity, body weight, food consumption, general and detailed clinical signs of toxicity were evaluated. At necropsy, vital (brain, heart, liver, spleen, kidneys and adrenal glands) and reproductive organs (ovaries, testicles and epididymis) were carefully removed, weighed and stored for further analysis (if necessary).

[7] = system: SARS-COV-2; assay: SARS-COV-2 viral RNA synthesis in Vero cells (real time RT-PCR); assay type: cell-based; settings: Severe acute respiratory syndrome coronavirus 2; Vero (MOI 0.01 24 h); read-out: EC50
[8] = system: Salmonella typhimirium TA 97a, TA 98, TA 100, TA 102 and TA 1535; assay: Bacterial reverse mutation (Ames) test
[9] = system: murine hepatitis virus (MHV); assay type: in vivo, mice; settings: DAC 60 mg/kg/day
[10] = system: SARS-COV-2; assay: SARS-COV-2 RNA loads in human primary monocytes; assay type: cell-based; settings: 24 h
Experimental: as §1, §2

[11] = Severe acute respiratory syndrome coronavirus 2, Calu-3, 72 h, Calu-3 (MOI 0.5 72 h), daily treatment
[12] = Severe acute respiratory syndrome coronavirus 2, Calu-3, 72 h, Calu-3 (MOI 0.5 72 h), single moment treatment
[13] = Severe acute respiratory syndrome coronavirus 2, Calu-3, Table 6, Calu-3, daily treatment
[14] = Severe acute respiratory syndrome coronavirus 2, Calu-3, Table 6, Calu-3, single treatment

Chain of human ERG potassium channel (ether-a-gogo-related gene, Kv11.1) (Q12809 whole entry): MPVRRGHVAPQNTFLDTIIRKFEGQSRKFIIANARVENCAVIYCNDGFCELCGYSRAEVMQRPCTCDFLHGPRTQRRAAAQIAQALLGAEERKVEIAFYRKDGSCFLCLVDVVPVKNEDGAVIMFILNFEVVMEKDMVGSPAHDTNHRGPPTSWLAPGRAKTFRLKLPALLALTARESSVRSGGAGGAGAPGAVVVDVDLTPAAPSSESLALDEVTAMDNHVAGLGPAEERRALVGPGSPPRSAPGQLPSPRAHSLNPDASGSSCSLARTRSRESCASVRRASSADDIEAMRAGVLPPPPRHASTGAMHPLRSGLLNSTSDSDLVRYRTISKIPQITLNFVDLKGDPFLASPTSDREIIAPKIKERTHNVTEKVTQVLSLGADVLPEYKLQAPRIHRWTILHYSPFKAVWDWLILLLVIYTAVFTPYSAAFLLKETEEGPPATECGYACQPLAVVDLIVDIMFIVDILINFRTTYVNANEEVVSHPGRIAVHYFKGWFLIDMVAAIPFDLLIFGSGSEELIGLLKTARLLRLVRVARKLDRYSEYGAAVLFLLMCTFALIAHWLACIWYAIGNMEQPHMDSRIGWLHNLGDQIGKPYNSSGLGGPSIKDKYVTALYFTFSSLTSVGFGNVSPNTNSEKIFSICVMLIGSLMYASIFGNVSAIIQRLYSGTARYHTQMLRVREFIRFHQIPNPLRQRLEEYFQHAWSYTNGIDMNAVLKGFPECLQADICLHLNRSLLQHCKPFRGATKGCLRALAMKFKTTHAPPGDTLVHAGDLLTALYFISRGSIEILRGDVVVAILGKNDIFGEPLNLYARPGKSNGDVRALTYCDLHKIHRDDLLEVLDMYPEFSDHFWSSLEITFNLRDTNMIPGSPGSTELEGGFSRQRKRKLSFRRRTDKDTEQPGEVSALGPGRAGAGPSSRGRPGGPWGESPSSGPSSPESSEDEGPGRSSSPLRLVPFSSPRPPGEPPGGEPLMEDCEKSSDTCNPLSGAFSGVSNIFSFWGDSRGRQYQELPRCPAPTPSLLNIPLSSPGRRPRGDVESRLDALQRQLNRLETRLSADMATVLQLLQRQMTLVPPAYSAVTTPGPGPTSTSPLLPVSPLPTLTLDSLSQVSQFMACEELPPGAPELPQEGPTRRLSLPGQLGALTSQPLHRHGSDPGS

c1coc(CNc2ncnc3[nH]cnc23)c1 [MB-905, kinetin]
inhibition of SARS-COV-2 RNA synthesis [1]: best profiles | SARS-CoV-2-induced enhancement of IL-6 levels in culture supernatant [2]: reduced | SARS-CoV-2-induced enhancement of TNF-α levels in culture supernatant [2]: reduced | EC50 [3, 11]: 30 nM | EC90 [3, 11]: 2100 nM | EC50 [3, 12]: 310 nM | EC90 [3, 12]: 2800 nM | EC50 [3, 13]: 30 nM | EC90 [3, 13]: 2100 nM | EC50 [3, 14]: 310 nM | EC90 [3, 14]: 2800 nM | anti-coronavirus activity with simultaneous adenine ([3]; calu-3, adenine at 10 μM): prevented | anti-coronavirus activity (SARS-COV-2 replication) ([3]; calu-3, treatment just after inoculation): concentration dependent inhibition | CC50 at 3 days ([4]; Calu-3, daily treatment): 538000 nM | CC50 at 3 days ([4]; Calu-3, single treatment): 620000 nM | inhibition of potassium permeation through the hERG channel [5]: about 20% | NOAEL at 7 days ([6]; both sexes, mouse, in vivo, oral, MTD study): 550 mg/kg | clinical signs ([6]; 1,150 mg/kg oral): piloerection, reduced touch response, prostration, loss of grasping strength, decrease in body temperature and death | death after compound administration, time ([6]; 1,150 mg/kg oral): ≤ 4 h | clinical signs ([6]; 175, 550 and 850 mg/kg oral): did not result in any observable clinical signs indicating toxicity | morbidity and mortality ([6]; 175, 550 and 850 mg/kg oral): did not result in any signs indicative of toxicity | body weight change and food consumption ([6]; single 175, 550 or 850 mg/kg): not observed any significant change | organs weight ([6]; single oral 175, 550 or 850 mg/kg): did not show any changes | EC50 [7]: 5000 nM | Mutagenicity ([8]; TA 97a +S9, 8 μg/mL): − | Mutagenicity ([8]; TA 97a +S9, 40 μg/mL): − | Mutagenicity ([8]; TA 97a +S9, 200 μg/mL): − | Mutagenicity ([8]; TA 97a +S9, 1,000 μg/mL): − | Mutagenicity ([8]; TA 97a +S9, 5,000 μg/mL): − | Mutagenicity ([8]; TA 97a −S9, 8 μg/mL): − | Mutagenicity ([8]; TA 97a −S9, 40 μg/mL): − | Mutagenicity ([8]; TA 97a −S9, 200 μg/mL): − | Mutagenicity ([8]; TA 97a −S9, 1,000 μg/mL): − | Mutagenicity ([8]; TA 97a −S9, 5,000 μg/mL): − | Mutagenicity ([8]; TA 98 +S9, 8 μg/mL): − | Mutagenicity ([8]; TA 98 +S9, 40 μg/mL): − | Mutagenicity ([8]; TA 98 +S9, 200 μg/mL): − | Mutagenicity ([8]; TA 98 +S9, 1,000 μg/mL): − | Mutagenicity ([8]; TA 98 +S9, 5,000 μg/mL): − | Mutagenicity ([8]; TA 98 −S9, 8 μg/mL): − | Mutagenicity ([8]; TA 98 −S9, 40 μg/mL): − | Mutagenicity ([8]; TA 98 −S9, 200 μg/mL): − | Mutagenicity ([8]; TA 98 −S9, 1,000 μg/mL): − | Mutagenicity ([8]; TA 98 −S9, 5,000 μg/mL): − | Mutagenicity ([8]; TA 100 +S9, 8 μg/mL): − | Mutagenicity ([8]; TA 100 +S9, 40 μg/mL): − | Mutagenicity ([8]; TA 100 +S9, 200 μg/mL): − | Mutagenicity ([8]; TA 100 +S9, 1,000 μg/mL): − | Mutagenicity ([8]; TA 100 +S9, 5,000 μg/mL): − | Mutagenicity ([8]; TA 100 −S9, 8 μg/mL): − | Mutagenicity ([8]; TA 100 −S9, 40 μg/mL): − | Mutagenicity ([8]; TA 100 −S9, 200 μg/mL): − | Mutagenicity ([8]; TA 100 −S9, 1,000 μg/mL): − | Mutagenicity ([8]; TA 100 −S9, 5,000 μg/mL): − | Mutagenicity ([8]; TA 102 +S9, 8 μg/mL): − | Mutagenicity ([8]; TA 102 +S9, 40 μg/mL): − | Mutagenicity ([8]; TA 102 +S9, 200 μg/mL): − | Mutagenicity ([8]; TA 102 +S9, 1,000 μg/mL): − | Mutagenicity ([8]; TA 102 +S9, 5,000 μg/mL): − | Mutagenicity ([8]; TA 102 −S9, 8 μg/mL): − | Mutagenicity ([8]; TA 102 −S9, 40 μg/mL): − | Mutagenicity ([8]; TA 102 −S9, 200 μg/mL): − | Mutagenicity ([8]; TA 102 −S9, 1,000 μg/mL): − | Mutagenicity ([8]; TA 102 −S9, 5,000 μg/mL): − | Mutagenicity ([8]; TA 1535 +S9, 8 μg/mL): − | Mutagenicity ([8]; TA 1535 +S9, 40 μg/mL): − | Mutagenicity ([8]; TA 1535 +S9, 200 μg/mL): − | Mutagenicity ([8]; TA 1535 +S9, 1,000 μg/mL): − | Mutagenicity ([8]; TA 1535 +S9, 5,000 μg/mL): − | Mutagenicity ([8]; TA 1535 −S9, 8 μg/mL): − | Mutagenicity ([8]; TA 1535 −S9, 40 μg/mL): − | Mutagenicity ([8]; TA 1535 −S9, 200 μg/mL): − | Mutagenicity ([8]; TA 1535 −S9, 1,000 μg/mL): − | Mutagenicity ([8]; TA 1535 −S9, 5,000 μg/mL): − | mutagenic activity in the reverse mutation test ([8]; all strains, absence and presence of S9): no mutagenic activity | weight recovery ([9]; MB-905 250 mg/kg/day): did not allow complete weight recovery | inflammatory cells in the respiratory tract ([9]; day 11, MB-905 250 mg/kg/day): less inflammatory cells | mortality ([9]; oral gavage daily from day 2, MB-905 250 mg/kg/day): reduced the mice mortality by half | viral RNA levels/cell [10]: reduced
